Results: paper PMC12284876 (RSC Advances, 2025)

Molecular target: α-glucosidase from Saccharomyces cerevisiae (Saccharomyces cerevisiae, UniProt P53341)
Test: α-Glucosidase inhibitory assay
Assay type: biochemical
Settings: mean ± standard error, n = 3; for Inhibition (I, %) 10 μM: compound at 10 μM; for Inhibition (I, %) 10 μM / Inhibition (I, %) 25 μM: series 250–10 μM; for Inhibition (I, %) 25 μM: compound at 25 μM; for Inhibition (I, %) 50 μM: compound at 50 μM; for Inhibition (I, %) 100 μM: compound at 100 μM; for Inhibition (I, %) 250 μM: compound at 250 μM

Chain of α-glucosidase from Saccharomyces cerevisiae (P53341 whole entry): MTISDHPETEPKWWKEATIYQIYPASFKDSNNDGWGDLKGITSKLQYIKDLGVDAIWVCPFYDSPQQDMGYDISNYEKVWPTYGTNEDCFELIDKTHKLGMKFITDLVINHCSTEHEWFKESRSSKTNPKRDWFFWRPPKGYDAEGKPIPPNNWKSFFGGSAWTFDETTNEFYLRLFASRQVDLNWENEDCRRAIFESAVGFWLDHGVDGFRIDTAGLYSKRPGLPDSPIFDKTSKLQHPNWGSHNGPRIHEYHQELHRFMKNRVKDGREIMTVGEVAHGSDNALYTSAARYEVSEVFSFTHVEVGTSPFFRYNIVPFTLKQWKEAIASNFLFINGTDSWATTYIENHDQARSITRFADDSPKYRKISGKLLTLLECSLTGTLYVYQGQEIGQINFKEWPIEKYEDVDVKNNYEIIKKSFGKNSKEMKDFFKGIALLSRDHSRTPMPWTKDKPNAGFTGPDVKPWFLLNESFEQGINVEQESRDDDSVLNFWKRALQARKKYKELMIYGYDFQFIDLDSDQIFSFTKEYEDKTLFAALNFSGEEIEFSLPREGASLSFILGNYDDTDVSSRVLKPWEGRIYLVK

Compound | Inhibition (I, %) 10 μM [%] | Inhibition (I, %) 25 μM [%] | Inhibition (I, %) 50 μM [%] | Inhibition (I, %) 100 μM [%] | Inhibition (I, %) 250 μM
O=c1c(O)c(-c2ccc(O)cc2)oc2cc(O)cc(O)c12 [Compound 8, kaempferol] | 8.6 ± 1.4 | 44.1 ± 2.9 | 84.9 ± 1.1 | 98.5 ± 2.2 | ^b (Inhibition > 99%)
C[C@H]1O[C@H](O[C@H]2[C@H](O)[C@@H](O)[C@@H](O[C@H]3[C@H](O)[C@@H](O)C(O)O[C@@H]3CO)O[C@@H]2CO)[C@H](O)[C@@H](O)[C@@H]1N[C@H]1C=C(CO)[C@@H](O)[C@H](O)[C@H]1O (stereo partly shown) [Acarbose] | 5.45 ± 0.68 | 9.3 ± 1.2 | 21.0 ± 1.6 | 26.8 ± 1.0 | 63.8 ± 1.0%
